According to patent US20240245694A1, “Tricyclic Compounds and their Uses” (Novartis AG, priority 2022, published 2024):

Tests used:
[1] = tested on: SW48 colorectal xenografts; assay: Efficacy against subcutaneous SW48 colorectal xenografts; assay type: in vivo, Crl:NU(NCr)-Foxn1nu nude mice; conditions: for % T/C / maximal regression: amorphous sodium salt; for anti-tumor effect / relapse while on treatment: p.o. qd; for anti-tumor effect: all dose levels of the study; for relapse while on treatment: time of relapse dose dependent
Procedure: (§1) Experiments were performed in female Crl:NU(NCr)-Foxn1^nu-homozygous nude mice (Charles River). Animals were housed under Optimized Hygienic Conditions in Allentown XJ cages (IVC, max. 6 mice per cage) with food and water at libitum and a 12 h:12 h light:dark cycle. Animals were allowed to acclimatize for at least 1 week before being enrolled in the experimental design. The study described here was performed according to license 1975 approved by the Basel Cantonal Veterinary Office.
Tumors were established by subcutaneous inoculation of human colorectal cancer SW48 cells (5×10^6 cells/animal in 100 μL in HBSS). SW48 human colorectal cancer cells were obtained from ATCC. The cells were cultured in RPMI-1640 medium (BioConcept Ltd., #1-41F01-1) supplemented with 10% FCS (Bio Concept #2-01F30-1), 2 mM L-glutamine (BioConcept Ltd., #5-10K50-H), 1 mM sodium pyruvate (Bio Concept #5-60F00-H) and 10 mM HEPES (Bio Concept #5-31F00-H) at 37° C. in an atmosphere of 5% CO2 in air. To establish SW48 xenografts cells were harvested and re-suspended in HBSS (Sigma, #H6648) before injecting subcutaneously 100 μL containing 5 million cells in the right flank of animals which were anaesthetized with isoflurane. Tumor size, in mm^3, was calculated following the formula: (L×W2×π/6); where W=width and L=length of the tumor. As a measure of efficacy the % T/C value is calculated at the end of the experiment according to:
Tumor regression was calculated according to: […]
Where Δtumor volumes represent the mean tumor volume on the evaluation day minus the mean tumor volume at the start of the experiment.
(§2) Amorphous sodium salt of test compound (corrected by salt factor) was dissolved in an aqueous 20% w/v solution of 2-hydroxypropyl-beta-cyclodextrin (HPBCD). A range of concentrations was prepared by serial dilution starting from the solution at highest concentration for the highest dose in the study.
(§3) Treatment was initiated about two weeks post tumor cell inoculation, when the xenografts had reached a mean volume of approximately 200 mm^3. The tumor bearing animals were randomized based on tumor volumes into experimental groups with 6 animals per group and treatment was initiated. Compounds were dosed orally (p.o.) once per day (qd) at 1, 3, 5 or 10 mg/kg (Example 18A) and at 0.1, 0.3, 1, 3 mg/kg (Example 21A). In addition, a control group treated once per day with vehicle (20% 2-hydroxypropyl-β-cyclodextrin) was included in each study. Tumor volumes and body weights were measured two times per week until the study termination.

SW48 cells = assay: Proliferation assay SW48 (CellTiterGlo, 96 hours); assay type: cell-based; conditions: Homo sapiens
Method in brief: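 Cells in RPMI-1640/10% FCS were seeded overnight (SW48 2'000, DLD1-WRN-KO 1'500 cells/well), then exposed to eight 3-fold compound dilutions at 0.1% DMSO. ATP luminescence relative to a day-0 plate gives % growth (0% stasis, −100% complete kill). GI50 is the geometric mean of ≥2 independent replicates.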

[2] = Tolerability (body weight) in the SW48 xenograft study; assay type: in vivo, Crl:NU(NCr)-Foxn1nu nude mice
Procedure: as §1, §2, §3

Compound	% T/C ([1]; 1 mg/kg p.o. qd, day 32 of the study (fourteenth day of treatment)) [%]	maximal regression ([1]; 3 mg/kg p.o. qd, day 49 of the study (thirty first day of treatment)) [%]	maximal regression ([1]; 5 mg/kg p.o. qd, day 49 (thirty first day of treatment)) [%]	maximal regression ([1]; 10 mg/kg p.o. qd, day 63 (forty fifth day of treatment)) [%]	anti-tumor effect [1]	relapse while on treatment [1]	GI50 (SW48 cells) [nM]	body weight gain, of the body weight at start ([2]; 1, 3, 5 or 10 mg/kg p.o. qd, after the initial body weight loss)	initial body weight loss among individual animals ([2]; 1, 3, 5 or 10 mg/kg p.o. qd, first ten days of treatment) [%]	% T/C ([1]; 0.1 mg/kg p.o. qd, day 25 throughout 29th day of the study (tenth to fourteenth day of treatment)) [%]	% T/C ([1]; 0.3 mg/kg p.o. qd, day 29 of the study (fourteenth day of treatment), initial stasis followed by regrowth) [%]	maximal regression ([1]; 1 mg/kg p.o. qd, day 52 of the study (thirty seventh day of treatment)) [%]	maximal regression ([1]; 3 mg/kg p.o. qd, day 85 (seventieth day of the treatment)) [%]	tolerability ([2]; 0.1, 0.3, 1, 3 mg/kg p.o. qd, throughout the study)	body weight loss among individual animals on individual occasions ([2]; 0.1, 0.3, 1, 3 mg/kg p.o. qd, not dose-dependent) [%]
Cc1ncnc(C(=O)N2CCN(c3c4n(c5nc(C6=CCOCC6)nn5c3=O)[C@@H](C(=O)Nc3ccc(C(F)(F)F)cc3Cl)C[C@H]4C)C[C@H]2C)c1O [Example 18A, (7R,9R)—N-(2-chloro-4-(trifluoromethyl)phenyl)-2-(3,6-dihydro-2H-pyran-4-yl)-6-((R)-4-(5-hydroxy-6-methylpyrimidine-4-carbonyl)-3-methylpiperazin-1-yl)-7-methyl-5-oxo-5,7,8,9-tetrahydropyrrolo[1,2-c][1,2,4]triazolo[1,5-a]pyrimidine-9-carboxamide]	22	71	83	91	Dose dependent anti-tumor effect was observed	Relapse was observed for all treatment groups	40	up to 18%	≤ 14						
Cc1ncnc(C(=O)N2CCN(c3c4n(c5nc(C6=CCOCC6)nn5c3=O)[C@@H](C(=O)Nc3ccc(C(F)(F)F)cc3Cl)C[C@H]4C)[C@H]3CC[C@@H]32)c1O [Example 21A, (7R,9R)—N-(2-chloro-4-(trifluoromethyl)phenyl)-2-(3,6-dihydro-2H-pyran-4-yl)-6-((1S,6S)-5-(5-hydroxy-6-methylpyrimidine-4-carbonyl)-2,5-diazabicyclo[4.2.0]octan-2-yl)-7-methyl-5-oxo-5,7,8,9-tetrahydropyrrolo[1,2-c][1,2,4]triazolo[1,5-a]pyrimidine-9-carboxamide]					Dose dependent anti-tumor effect was observed	no relapse was observed in three animals treated at 1 mg/kg and in entire group treated at 3 mg/kg	6			50	0	75	99	well tolerated	≤ 15
